The target of the assay is T1, human recombinant COX-2 (Homo sapiens, UniProt P35354).
T1 construct: purchased Cayman
T1 sequence (P35354 18-604): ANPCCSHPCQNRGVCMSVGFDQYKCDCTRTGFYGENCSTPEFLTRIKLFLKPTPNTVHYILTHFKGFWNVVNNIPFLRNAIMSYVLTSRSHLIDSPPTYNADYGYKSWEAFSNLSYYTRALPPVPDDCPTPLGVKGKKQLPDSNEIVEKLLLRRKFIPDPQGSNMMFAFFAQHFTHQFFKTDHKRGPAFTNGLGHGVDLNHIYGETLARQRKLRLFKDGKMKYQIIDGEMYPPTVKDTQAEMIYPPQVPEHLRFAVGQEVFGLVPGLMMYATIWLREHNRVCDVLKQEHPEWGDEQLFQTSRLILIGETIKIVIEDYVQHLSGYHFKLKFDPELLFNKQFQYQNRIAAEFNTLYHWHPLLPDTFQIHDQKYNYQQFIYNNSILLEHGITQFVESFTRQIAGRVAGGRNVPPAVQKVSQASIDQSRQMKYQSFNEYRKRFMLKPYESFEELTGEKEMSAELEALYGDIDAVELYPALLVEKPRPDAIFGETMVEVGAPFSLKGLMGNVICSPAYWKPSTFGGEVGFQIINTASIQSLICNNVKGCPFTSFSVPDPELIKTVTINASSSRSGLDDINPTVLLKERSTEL
As to the kind of experiment: Colorimetric COX Inhibitor Screening Assay (Cayman), COX-2 inhibitory effect. Format: biochemical. Here is the method:
Cayman’s Colorimetric COX Inhibitor Screening Assay provides a convenient method for human recombinant COX-2 to screen isozyme-specific inhibitors. The assay measures the peroxidase component of COXs. The peroxidase activity is assayed colorimetrically by monitoring the appearance of oxidized N′,N,N,N′-tetramethyl-p-phenylenediamine (TMPD) at 590 nm. The COX-2 assay consisted of a 200 µL reaction mixture containing 150 µL assay buffer, 10 µL Heme, 10 µL COX-2, 20 µL Colorimetric Substrate, and 10 µL test solution (1, 5, 10, 20, 80, 100 µmol·L^−1). The reactions were initiated by quickly adding 10 µL Arachidonic Acid, then incubating for 2 min at room temperature.

What is called IC50 is the midpoint of a concentration-inhibition curve. Take `C[C@H](CCO)[C@H]1CC[C@@]2(C)[C@@H]3CC=C4[C@@H](CC[C@H](O)C4(C)C)[C@]3(C)CC[C@]12C` [Compound 6, 24,25,26,27-tetranorcucurbita-5-ene-3β,23-diol]: the IC50 was 31 ± 2.64 µM.

As to `C[C@H](CCCO)[C@H]1CC[C@@]2(C)[C@@H]3CC=C4[C@@H](CC[C@H](O)C4(C)C)[C@]3(C)CC[C@]12C` [Compound 4, 25,26,27-trinorcucurbita-5-ene-3β,24-diol], the IC50 is 3.98 ± 0.32 µM.

On to `C[C@H](CC[C@H](O)C(C)(C)O)[C@H]1CC[C@@]2(C)[C@@H]3CC=C4[C@@H](CC[C@H](O)C4(C)C)[C@]3(C)CC[C@]12C` [Compound 2, cucurbita-5-ene-3β,24S,25-triol], for which the IC50 was 18.9 ± 1.65 µM.

For the compound `CC(C=CC(O)C(C)(C)O)C1CCC2(C)C3CC=C4C(CCC(O)C4(C)C)C3(C)CCC12C` (stereo not drawn) [Compound 1, cucurbita-5, 22-diene-3β, 24S, 25-triol], the IC50 was > 100 µM.

Take `C[C@H](CCC(=O)O)[C@H]1CC[C@@]2(C)[C@@H]3CC=C4[C@@H](CC[C@H](O)C4(C)C)[C@]3(C)CC[C@]12C` [Compound 5, 25,26,27-trinorcucurbita-5-ene-3β-ol-24-acid]: the IC50 stood at 19.5 ± 1.87 µM.

Turning to `CC(CC=CC(C)(C)O)C1CCC2(C)C3CCC4(C)C(C)C(=O)CCC4C3(C)CCC12C` (stereo not drawn) [Compound 7, 18R-D:A-friedoeuph-20-ene-22-ol-3-one], the IC50 was > 100 µM.

Take `C[C@H](C/C=C/C(C)(C)O)[C@H]1CC[C@@]2(C)[C@@H]3CC=C4[C@@H](CC[C@H](O)C4(C)C)[C@]3(C)CC[C@]12C` [Compound 9, cucurbita-5,23-diene-3β,25-diol]: the 50% inhibitory concentration (IC50) is > 100 µM.

Take `C=C(C)[C@@H](O)CC[C@@H](C)[C@@H]1CC[C@]2(C)[C@H]3CC[C@@]4(C)[C@@H](CCC(=O)[C@@H]4C)[C@]3(C)CC[C@@]12C` [Compound 8]: the IC50 is > 100 µM.

Turning to `C[C@H](C/C=C/C(C)(C)O)[C@H]1CC[C@@]2(C)[C@@H]3C[C@H]4O[C@@]45[C@@H](CC[C@H](O)C5(C)C)[C@]3(C)CC[C@]12C` [Compound 3, cucurbita-5β,6β-epoxy-23-ene-3β, 25-diol], the IC50 is > 100 µM.

These data come from PMC7046841, “Triterpenoids from Ainsliaea latifolia and Their Cyclooxyenase-2 (COX-2) Inhibitory Activities” (Natural Products and Bioprospecting, 2019).
